Results reported in publication PMC7822874, “Chemoprotective antimalarials identified through quantitative high-throughput screening of Plasmodium blood and liver stage parasites” (Scientific Reports, 2021).
“Also recorded” adds a separate entry of the source. Read-outs that look alike come from different tables or passages of the source.

Tests used:
Aqueous solubility = format: physicochemical
Description: (§1) Pharmacokinetic modeling experiments, parallel artificial membrane permeability assay (PAMPA), solubility, and rat liver microsome stability assessment were performed on all synthetic compounds, as previously described[73]–[75].

[1] = Rat liver microsomal stability (RLMS); details: for half-life: rat
Description: as §1

[2] = system: P. falciparum Dd2 (clone B2) asexual blood stage parasites; assay: P. falciparum Dd2 asexual blood stage SYBR Green-I 72 h proliferation assay (qHTS); format: cell-based, Plasmodium falciparum
[3] = system: P. falciparum Dd2 Cytb V259L; assay: SYBR Green ABS proliferation assay, NCGC00473217 selected clone F06; format: cell-based, Plasmodium falciparum; details: Plasmodium falciparum
Outline: (§2)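 Asexual blood-stage proliferation of cytochrome b-mutant Dd2 clones after 72 h compound exposure at 37 °C in low-oxygen gas, quantified as control-normalized SYBR Green-I fluorescence; differences tested by two-sided t-test.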

[4] = system: luciferase-expressing P. berghei liver stage parasites in HepG2 cells; assay: Inhibition of liver-stage development assay (ILSDA), Method 2 (WRAIR, 96-well); format: cell-based, Plasmodium berghei; details: for AC50: Plasmodium berghei
[5] = system: P. falciparum Dd2 Cytb A122D; assay: SYBR Green ABS proliferation assay, NCGC00473217 selected clone F12; format: cell-based, Plasmodium falciparum; details: Plasmodium falciparum
Outline: as §2

[6] = system: P. falciparum Dd2 Cytb F123L; assay: SYBR Green ABS proliferation assay, NCGC00473217 selected clone G08; format: cell-based, Plasmodium falciparum; details: Plasmodium falciparum
Outline: as §2

[7] = HepG2 mammalian toxicity, CellTiter-Glo, 48 h; details: human
HepG2 cells = assay: HepG2 mammalian toxicity, CellTiter-Glo, 48 h; details: 48 h compound exposure
[8] = system: P. falciparum Dd2 Cytb G131S; assay: SYBR Green ABS proliferation assay, NCGC00374598 selected clone C11; format: cell-based, Plasmodium falciparum; details: for AC50: Plasmodium falciparum
Outline: as §2

[9] = Parallel artificial membrane permeability assay (PAMPA); format: in vitro ADME
Description: as §1

[10] = system: P. falciparum Dd2-B2 parasites; assay: In vitro resistance selection under constant drug pressure; format: cell-based, Plasmodium falciparum
Description: Recently cloned P. falciparum Dd2-B2 parasites, cultured in duplicate flasks each harboring an inoculum of 2 × 10^9 parasites, were subjected to constant drug pressure from NCGC00473217 at 5 × AC50 or NCGC00374598 at 3 × AC50. […] Clones were then obtained by limiting dilution and three to four clones from each flask were expanded for profiling and sequencing.
Fresh uninfected RBCs (0.5% hematocrit) were added on day 7 and media was changed every other day. […] Resistant parasites were maintained under drug media at a volume of 50 mL until a high parasitemia (> 5%) was achieved. Aliquots of the bulk resistant cultures were frozen in cryovials before cloning by limiting dilution in 96-well plates (seeded at 0.25 or 0.5 parasites/well)[70]. After 3 weeks of cloning, we screened for positive wells by flow cytometry with SYBR Green-stained cells. […] Parasites were harvested by saponin lysis at the trophozoite stage and genomic DNA was extracted using the QIAamp DNA Blood Midi Kit (Qiagen, Germantown, MD)[71].

[11] = system: P. berghei-ANKA-GFP-LucCON liver stage parasites in HepG2-A16-CD81EGFP cells; assay: P. berghei liver stage Pb-Luc assay, Method 1 (UCSD, 1536-well); format: cell-based, Plasmodium berghei; details: Plasmodium berghei
[12] = Plasmodium falciparum, DD2, 72 h, SYBR Green 72 h, WT Dd2-B2, read-out: AC50 Log[M] ± SD, Dd2-B2 (parental line) (converted)
[13] = Plasmodium falciparum, DD2, 72 h, SYBR Green 72 h, approximate value in μM, read-out: AC50 [μM], Dd2-B2 (parental line) (converted)
[14] = DD2, NCGC00473217 selected clone, read-out: AC50 Log[M] ± SD, Cytb V259L (converted)
[15] = DD2, NCGC00473217 selected clone, read-out: AC50 Log[M] ± SD, Cytb A122D (converted)
[16] = DD2, NCGC00473217 selected clone, read-out: AC50 Log[M] ± SD, Cytb F123L (converted)
[17] = DD2, NCGC00374598 selected clone, read-out: AC50 Log[M] ± SD, Cytb G131S (converted)

CCCN1C(c2ccccc2)=NS(=O)(=O)c2cc(NC(=O)c3ccc(F)cc3)ccc21 [NCGC00532331]
Aqueous Solubility (Aqueous solubility): poor aqueous solubility
solubility (Aqueous solubility; aqueous media): < 1 µg/mL
RLMS T1/2 ([1]; rat liver microsomes): favorable
half-life ([1]; rat liver microsomes): > 30 min
AC50 [2, 12]: 8.91e-07 M
AC50 [2, 13]: 8.94e-07 M
AC50 [μM], Dd2-B2 (parental line) ([2]; SYBR Green 72 h, approximate value in μM): sub-micromolar
AC50 ([3]; DD2, NCGC00473217 selected clone F06, read-out: AC50 [μM], Cytb V259L (converted)): 2.33 µM
AC50 [3, 14]: 2.34 µM
AC50 ([4]; HepG2, 48 h, 48 h, firefly luciferase reporter P. berghei line, read-out: ILSDA AC50): 48 nM
AC50 ([4]; HepG2, 48 h, 48 h, read-out: ILSDA AC50 (Method 2)): < 50 nM
AC50 ([5]; DD2, NCGC00473217 selected clone F12, read-out: AC50 [μM], Cytb A122D (converted)): 1.85 µM
AC50 [5, 15]: 1.86 µM
AC50 ([6]; DD2, NCGC00473217 selected clone G08, highest concentration 29 µM, read-out: AC50 [μM], Cytb F123L (converted)): 3.3 µM
AC50 [6, 16]: 3.31 µM
AC50 at 48 h ([7]; HepG2 cells, HepG2 AC50 (mammalian cellular toxicity), 48 h compound exposure): > 20000 nM
HepG2 AC50 (mammalian cellular toxicity) (HepG2 cells): Neither compound was cytotoxic
AC50 [μM], Cytb G131S ([8]; NCGC00374598 selected clone C11): maintained potency
AC50 ([8]; DD2, NCGC00374598 selected clone C11, read-out: AC50 [μM], Cytb G131S (converted)): 0.71 µM
AC50 [8, 17]: 0.708 µM
PAMPA permeability [9]: good PAMPA permeability; also recorded: favorable
PAMPA pH7.4 ([9]; pH 7.4): 896 1e-6 cm/s

CC(=O)Nc1ccc(CN2CCc3nc(C(C)C)nc(-c4ccc(Cl)cc4)c3CC2)cc1 [NCGC00374598]
half-life ([1]; microsomes): 4 min
AC50 [2, 12]: 1.58e-06 M
AC50 [2, 13]: 1.5e-06 M
AC50 ([2]; Plasmodium falciparum, DD2, Suppl Table 6, read-out: AC50 (mM), WT (Dd2-B2)): 1.51e-06 M
AC50 ([2]; SYBR Green 72 h, approximate value in μM, read-out: AC50 [μM], Dd2-B2 (parental line) (converted)): 1.51e-06 M
AC50 [3, 14]: 2.82 µM
AC50 ([3]; DD2, Suppl Table 6, read-out: AC50 (mM), Dd2 Cytb V259L): 2.82 µM
Max Resp (signal direction of the dose response) ([4]; Method 2, Decrease = decreasing P. berghei viability with dose, Increase = increasing signal, Inactive = no dose response): Inactive
AC50 ([4]; HepG2, mean, read-out: liver stage AC50 (Method 2)): 500 nM
AC50 [5, 15]: 2.09 µM
AC50 ([5]; DD2, Suppl Table 6, read-out: AC50 (mM), Dd2 Cytb A122D): 2.09 µM
AC50 [6, 16]: 0.389 µM
AC50 ([6]; DD2, Suppl Table 6, read-out: AC50 (mM), Dd2 Cytb F123L): 0.389 µM
AC50 [7]: > 20000 nM
HepG2 AC50 (mammalian cellular toxicity) (HepG2 cells): no apparent toxicity
AC50 [8, 17]: 3.47 µM
AC50 ([8]; DD2, Suppl Table 6, read-out: AC50 (mM), Dd2 Cytb G131S): 3.47 µM
Recrudescence under pressure ([10]; 2 × 10^9 parasites, 5 × AC50 (NCGC00473217) or 3 × AC50 (NCGC00374598)): 36 days
AC50 increase of selected clones ([10]; clones from selections with the same compound): threefold increase
AC50 ([11]; UCSD, read-out: liver stage AC50 (Method 1)): 710 nM
inhibition at 1 µM ([11]; 1 μM): > 60%
inhibition at 3 µM ([11]; 3 μM): > 90%
